Tests used:
[1] = tested on: EGFR and HER2; assay: EGFR and HER2 levels in patient-derived breast cancer cells (FIG. 4A); assay type: cell-based; settings: patient-derived cells from a TNBC (HCI-001) and a drug resistant, metastatic, HER2+ breast cancer (HCI-012/MLR)
[2] = tested on: MDA-MB-468 cells; assay: MTT cell viability assay; assay type: cell-based; settings: for potency of cytotoxicity relative to tcyDTDO: MDA-MB-468 breast cancer cells, compared with tcyDTDO; for effect on cell viability: MDA-MB-468 cells, increasing concentrations (FIG. 7)
Method: (§1) MTT cell viability is evaluated using MTT (3-(4,5-dimethylthiazol-2-yl)-2,5-diphenyltetrazolium bromide) assays carried out based on the manufacturer's instructions (kit CGD1, Sigma-Aldrich, St. Louis, MO).

[3] = tested on: DR4, DR5, EGFR, GRP78, AGR2, XBP1s in MDA-MB-468 cells; assay: Immunoblots in MDA-MB-468 cells (FIG. 9, FIG. 10); assay type: cell-based; settings: for DR5 expression / ER-stress induced proteins GRP78 and AGR2: MDA-MB-468 cells (FIG. 9); for potency vs tcyDTDO in upregulating and oligomerizing DR4 and DR5 and increasing XBP1s, GRP78, and AGR2 / disulfide bond-dependent oligomerization of DR4, DR5, and EGFR: MDA-MB-468 cells; for potency vs tcyDTDO in upregulating and oligomerizing DR4 and DR5 and increasing XBP1s, GRP78, and AGR2: 2.5 mM (FIG. 10); for disulfide bond-dependent oligomerization of DR4, DR5, and EGFR: at the concentrations that induce cancer cell death (FIG. 9)
[4] = tested on: DR4, DR5, HER3 oligomerization and Akt phosphorylation; assay: Immunoblot analysis in MDA-MB-468 TNBC and BT474 HER2+ lines (FIG. 2B); assay type: cell-based; settings: the two compounds similar
[5] = tested on: DR4, DR5, and EGFR oligomerization; assay: Immunoblot with inhibitors of ER acetyltransferases (FIG. 3C); assay type: cell-based
[6] = biological target: T1, AGR2 (Homo sapiens, UniProt O95994); assay: Protein thiolate reactivity assay: biotin-tagged DDA binding to AGR2, with competitors; settings: competition with DDAs
T1 sequence (O95994 21-175): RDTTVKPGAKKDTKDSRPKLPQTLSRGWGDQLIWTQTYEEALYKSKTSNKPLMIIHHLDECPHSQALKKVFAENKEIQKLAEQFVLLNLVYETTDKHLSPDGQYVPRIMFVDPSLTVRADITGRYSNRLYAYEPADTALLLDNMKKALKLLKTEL
Method: To measure DDA and NSC322072 covalent binding to AGR2, purified, recombinant AGR2 is incubated with a biotin-tagged DDA compound for 1 h at 37° C. in the presence or absence of non-biotinylated competitor DDAs or NSC322072. Reaction mixtures are boiled with SDS-PAGE sample buffer supplemented with 100 mM N-ethylmaleimide for ca. 10 minutes to block free thiolate groups remaining after the reaction. Conjugation of AGR2 by DDAs is measured by evaluating AGR2 modification in the modified immunoblot assay in Example 16.
Samples from the biotin-DDA/AGR2 reactions (Example 14) are resolved by non-reducing SDS-PAGE and transferred to nitrocellulose membranes. The membranes are blocked and analyzed by immunoblot with antibodies to AGR2 to verify addition of AGR2 protein to the assays. Anti-AGR2 primary antibody is detected with an Alkaline Phosphatase-conjugated secondary antibody. Separate, replicate membranes are probed with Streptavidin-Alkaline phosphatase. […] Both the AGR2 immunoblots and the Streptavidin-Alkaline phosphatase blots are detected using the standard Alkaline Phosphatase detection compounds, Bromo-chloro-indoyl Phosphate (BCIP)/Nitroblue Tetrazolium (NBT).

[7] = tested on: breast cancer cell lines; assay: Cell viability assays in breast cancer cell lines (FIG. 2C, FIG. 3B); assay type: cell-based; settings: increasing concentrations
Method: as §1

[8] = tested on: pancreatic PDX tumors; assay: Treatment of mice bearing pancreatic PDX tumors (FIG. 4B); assay type: in vivo; settings: separation of cancer cells from stroma and pancreatic cancer cell death
[9] = tested on: human breast tumors growing in rodent models; settings: cited from earlier work

CO[C@H]1C[C@@H]2CS(=O)(=O)SC[C@H]2C[C@@H]1OC (racemic) [DMtcyDTDO, (4aS,6S,7S,8aS)- and (4aR,6R,7R,8aR)-6,7-Dimethoxyoctahydrobenzo [d][1,2]dithiine 2,2-dioxide]
EGFR and HER2 levels [1]: decrease EGFR and HER2 levels
potency relative to TcyDTDO ([2]; FIG. 1B legend, test not stated there): twice as potent as TcyDTDO
potency of cytotoxicity relative to tcyDTDO [2]: 2 fold
effect on cell viability [2]: decrease the viability of the cancer cell lines in a concentration-dependent manner
DR5 expression [3]: upregulate DR5
ER-stress induced proteins GRP78 and AGR2 [3]: increase the ER-stress induced proteins GRP78 and AGR2
potency vs tcyDTDO in upregulating and oligomerizing DR4 and DR5 and increasing XBP1s, GRP78, and AGR2 [3]: more potent than tcyDTDO
disulfide bond-dependent oligomerization of DR4, DR5, and EGFR [3]: induce disulfide bond-dependent oligomerization of DR4, DR5, and EGFR
Akt phosphorylation [4]: decrease Akt phosphorylation
DR4, DR5, and HER3 oligomerization [4]: increase DR4, DR5, and HER3 oligomerization

O=S1(=O)CC2CC(F)C(F)CC2CS1 (racemic) [dFtcyDTDO, (4aS,6S,7S,8aS)- and (4aR,6R,7R,8aR)-6,7-Difluorooctahydrobenzo[d][1,2]dithiine 2,2-dioxide]
potency of cytotoxicity relative to tcyDTDO [2]: 2 fold
effect on cell viability [2]: decrease the viability of the cancer cell lines in a concentration-dependent manner
DR5 expression [3]: upregulate DR5
ER-stress induced proteins GRP78 and AGR2 [3]: increase the ER-stress induced proteins GRP78 and AGR2
potency vs tcyDTDO in upregulating and oligomerizing DR4 and DR5 and increasing XBP1s, GRP78, and AGR2 [3]: more potent than tcyDTDO
disulfide bond-dependent oligomerization of DR4, DR5, and EGFR [3]: induce disulfide bond-dependent oligomerization of DR4, DR5, and EGFR

CNC(=O)Nc1ccc2c(c1)CC[C@@]21OC(=O)N(CC(=O)N(Cc2ccc(F)cc2)[C@@H](C)C(F)(F)F)C1=O [A-485]
DR4, DR5, and EGFR oligomerization [5]: without effect

CCCCCC(C[N+]1(C)CCOCC1)C(=O)/C=C/c1ccccc1.[Br-] (stereo not drawn) [NSC322072]
EGFR and HER2 levels [1]: decrease EGFR and HER2 levels
binding site on AGR2 (competition experiments) [6]: bind to the same site on AGR2
Akt phosphorylation [4]: decrease Akt phosphorylation
DR4, DR5, and HER3 oligomerization [4]: increase DR4, DR5, and HER3 oligomerization
effect on cell viability [7]: decrease the viability of three different breast cancer cell lines in a concentration-dependent manner

O=S1(=O)CC2CCCCC2CS1 (stereo not drawn) [TcyDTDO]
effect on pancreatic PDX tumors (H&E) [8]: causes disintegration of the tumors
in vivo anticancer activity [9]: established in vivo anticancer activity
